Results from patent US20090263852A1, “NONAPOPTOTIC FORMS OF CELL DEATH AND METHODS OF MODULATION” (priority 2000, published 2009).
Starred links: 1 amine or outer side, 2 acyl side, 3 side chain; linkers in the order of their positions; H or OH if unused. Positions of bridges follow the written chain, without caps; N, C: chain ends. Non-standard residues stand in square brackets, D forms with d. Residues, ends and D or L forms follow the SMILES beside them. Chains are numbered I, II in the order given. Actinocin(9to1) = Cc1c2oc3c(C)ccc(C(=O)[*:1])c3nc-2c(C(=O)[*:2])c(N)c1=O; NMeV = CN[C@H](C(=O)O)C(C)C; Sar = CNCC(=O)O

Key:
[1] = tested on: IGFIR-IC transfected 293T cells; experiment: IGFIR-IC-induced cell death (paraptosis) in transfected 293T cells, trypan blue exclusion; assay type: cell-based; set-up: inhibition of IGFIR-IC-induced cell death: dose or concentration left out as unconfirmed; settings: for IGFIR-induced cell death following drug treatment: drug added 8.5 hrs after transfection, removed after 12 hrs, floating dead cells counted 24 hrs later with trypan blue
Experimental: Transient transfections used Lipofect-Amine (GIBCO, BRL, Rockville, Md.) according to the manufacturer's instructions. Briefly, 1×10^6 293T cells were seeded in 6 cm dishes, and transfected the next day using a ratio of DNA:Lipofect-Amine of 1 μg:5 μl.
(§1) Following expression of the IGIFR-IC constructs, the cell cultures were assayed for cell death. Cell death was assessed by trypan blue exclusion. Floating cells were collected at the indicated times after transfection, by centrifugation for 10 minutes at 1500 rpm. The cell pellet was subsequently resuspended in 50 μl of PBS, to which 50 μl of trypan blue was added. Dead cells were counted by 4 independent hemocytometer counts.
Briefly, caspase inhibitor BAF was added to pIGFIR-IC transfected 293T cells at a concentration of […]. In addition, 293T cells were cotransfected with […] of pIGFIR-IC and […] of either pcDNA3 or pxiap or pBcl-xL. […] BAF and zVAD.fmk were obtained from Enzyme System Products (Livermore, Calif.).
To assess IGFIR-induced cell death following treatment with Actinomycin D and cycloheximide, both drugs were obtained form Sigma and added to IGFIR-IC transfected 293T cells. Briefly, 293T cells were transfected as described above and 8.5 hours after the beginning of transfection the drugs were added at the indicated concentrations. The drugs were subsequently removed after 12 hours and the cells were fed with fresh medium. Floating cells were collected 24 hrs after the removal of the drugs and dead cells were counted in the presence of trypan blue.
To assess whether caspase-9 has a functional role in IGFIR-induced cell death 293T cells were transfected with 2 μg of DNA consisting of either pcDNA3, 0.5 μg pIGFIR-IC+1.5 μg pcDNA3 (Invitrogen, Carlsbad, Calif.), or 0.5 μg pIGFIR-IC+1.5 μg dominant negative caspase-9 (pC9DN) or dominant negative caspase-7 (pC7DN) expression constructs. 48 hours after transfection, dead cells were counted.

Apoptosis = settings: Table 1, Comparison of Apoptosis, Necrosis and Paraptosis; cited from earlier work
[2] = tested on: 293T cells transfected with caspase-7 zymogen expression construct; experiment: caspase-7 induced cell death in transfected 293T cells; assay type: cell-based; settings: 50 μM final concentration, 48 hours after transfection
Experimental: (§2) In panel (A) 293T cells were transfected with the indicated pcDNA3-based caspase zymogen expression constructs. The general caspase inhibitor BAF was added at 50 μM final concentration. Cell death was assayed 48 hours after transfection. […] Asterisks indicate a highly significant difference from the control as determined by one-way ANOVA analysis (F=34.624, P<0.0001), P<0.0001 for pC9, P=0.0002 for pC7, and P=0.0001 for pC9+BAF (Bonferroni/Dunn post-hoc test). Error bars represent the SEM from three independent experiments. […] Cells were photographed 24 hours after transfection. […] BAF. […] Cells were stained as described in FIG. 2C. Panel (E) Electron micrograph of 293T cells transfected with an expression construct for pro-caspase-9 in the presence of. zVAD.fmk (40 μM). Morphology similar to IGFIR-IC-induced cell death was observed, including cytoplasmic vacuolation and the absence of chromatin condensation, nuclear fragmentation, and apoptotic body formation. Original magnification: 6000×.
as §1, with “The cell pellet was subsequently resuspended in 50 μl of PBS, to which 50 μl of trypan blue was added.” left out, “counts. […]” for “counts.”

[3] = tested on: 293T cells transfected with pro-caspase-9 (pC9); experiment: caspase-9 induced cell death in transfected 293T cells; assay type: cell-based
Experimental: as §2
as §1, with “The cell pellet was subsequently resuspended in 50 μl of PBS, to which 50 μl of trypan blue was added.” left out, “counts. […]” for “counts.”

[4] = tested on: 293T cells transfected with pro-caspase expression constructs; experiment: Internucleosomal DNA fragmentation of 293T cells transfected with pro-caspase expression constructs; assay type: cell-based; settings: 50 μM BAF
Experimental: as §2
Since one of the defining features of apoptotic cell death is the fragmentation of chromatin, genome integrity was assayed by agarose gel electrophoresis. Oligonucleosomal DNA fragmentation was assessed by extraction of soluble DNA from 3×10^6 transfected cells as by Frisch and Francis, Journal of Cell Biology 124:619-626 (1994), which is incorporated herein by reference.

Cc1c2oc3c(C)ccc(C(=O)N[C@@H]4C(=O)N[C@H](C(C)C)C(=O)N5CCC[C@H]5C(=O)N(C)CC(=O)N(C)[C@@H](C(C)C)C(=O)O[C@@H]4C)c3nc-2c(C(=O)N[C@@H]2C(=O)N[C@H](C(C)C)C(=O)N3CCC[C@H]3C(=O)N(C)CC(=O)N(C)[C@@H](C(C)C)C(=O)O[C@@H]2C)c(N)c1=O [Actinomycin D] (I: T[dV]P[Sar][NMeV] / II: T[dV]P[Sar][NMeV]; ester I:1-I:C, II:1-II:C; linker I:N-II:N via Actinocin(9to1))
IGFIR-induced cell death following drug treatment [1]: restored cell viability to control levels
Inhibition by: Apoptosis (Apoptosis): Sometimes

COC(=O)C[C@H](NC(=O)OC(C)(C)C)C(=O)CF [BAF, t-butyloxycarbonyl-Asp (O-methyl)-fluoromethyl ketone]
inhibition of IGFIR-IC-induced cell death ([1]; 293T cells): Neither the administration of the caspase inhibitor BAF at 50 mM (A) nor the cotransfection of xiap (B) or Bcl-xL (C) were effective
inhibition of caspase-7 induced cell death [2]: completely
morphology of pro-caspase-9 transfected cells, light microscopy ([3]; 50 μM BAF, 24 hours after transfection): suppressed the apoptotic phenotype
inhibition of caspase-9 induced cell death ([3]; 50 μM final concentration, 48 hours after transfection): 30%
Internucleosomal DNA fragmentation [4]: completely inhibited

C[C@@H]1C[C@@H]([C@H](O)CC2CC(=O)NC(=O)C2)C(=O)[C@@H](C)C1 [Cycloheximide, cycloheximide]
Inhibition by: Paraptosis ([1]; Table 1, 293T cell death induced by IGFIR-IC): 0
IGFIR-induced cell death following drug treatment [1]: dose-dependent block
Inhibition by: Apoptosis (Apoptosis): Sometimes

CC[C@H]1/C=C/C=C/C[C@@H](C)[C@H](O)[C@@](C)(O)C(=O)[C@@H](C)[C@H](O)[C@@H](C)C(=O)[C@@H](C)[C@H](O)[C@@H](C)/C=C/C(=O)O[C@@H]2[C@H](C)[C@H](CC1)O[C@]1(CC[C@H](C)[C@H](C[C@@H](C)O)O1)[C@H]2C [oligomycin]
block of IGFIR-induced cell death phenotype ([1]; 100 ng/ml): blocked the phenotype
